In US20110112192A1, “VERFAHREN ZUR GERUCHSEXTINKTION” (priority 2007, published 2011):

Experiments:
[1] = Administration of acetylcysteine before the consumption of a garlic containing meal; assay type: in vivo, human; conditions: administration about 10 minutes before the meal; 50 mg female, 75 mg male test persons; 15 tests per person
Method: 2. Administration of an acetylcysteine before the consumption of a garlic containing meal Battery of tests and dosage applied the same as under 1. The administration of acetylcysteine was done about 10 minutes before the meal.

[2] = Administration of acetylcysteine after the consumption of a garlic containing meal; assay type: in vivo, human; conditions: ACC-fizzing tablets (Hexal) given after the meal; 50 mg female test persons (32 to 74 kg), 75 mg male test persons (52 to 98 kg); 15 tests per person
Method: 1. Administration of acetylcysteine after the consumption of a garlic containing meal Battery of tests with 15 tests per person. Dosing: 50 mg with female test persons (32 to 74 kg body weight) i. 75 mg with male test persons (52 to 98 kg body weight) In these tests, the ACC-fizzing tablets of the Hexal company were applied. The positive test results were observed each within a time window of 10 to 20 minutes after administration of the acetylcysteine.

CC(=O)N[C@@H](CS)C(=O)O [acetylcysteine]
odor formation after garlic containing meal [1]: odor formation was likewise prevented
odor after garlic containing meal [2]: no odor in all tests
